Experimental data published in patent US20050074867A1, “Preservation of competent cells at ambient temperatures” (priority 2001, published 2005).

Assays:
[1] = system: logarithmic E. coli cells; test: Preservation survival and stability of logarithmic E. coli cells loaded in vitro before foam drying; assay type: cell-based; details: for Preservation Yield (Day 0) % Survival / Preservation Yield (Day 0) Cfu/ml / Stability (Day 7 at RT) % Survival / Stability (Day 7 at RT) Cfu/ml / Stability (Day 14) % Survival / Stability (Day 14) Cfu/ml: loaded with 10% MAG at 37° C. for 30 minutes
Procedure: (3) Loading of fresh electrocompetent E. coli cells before preservation: When applicable, one aliquot of the cell concentrate (3.2 ml of cells in PBS buffer, approx. 2×10^10 cfu/ml) was mixed with 0.8 ml of 50% methyl-glucoside (MAG; 10% final concentration) and incubated at 37° C. for 30 minutes (in vitro loading). A second aliquot (3.2 ml of the cell concentrate) was mixed with 0.8 ml of PBS buffer and incubated on ice for 30 minutes (control, unloaded cells). Similar to loading with MAG, the cells were loaded with 2-deoxyglucose (2-DOG) as described in Example 5 infra.
(4) Preservation of electrocompetent E. coli cells: The cells (resuspended in PBS buffer or on 20% sucrose) were mixed with an equal mass of preservation solution consisting of 45% 2:1 sucrose:raffinose or 45% 4:1 sucrose:MAG on ice. Altematively, the cell pellets were resuspended directly in 22.5% sucrose:raffinose or 22.5% 4:1 sucrose:MAG. The 0.5 g aliquots were distributed in 5 ml glass serum vials or 0.2 g aliquots were distributed in 1.2 ml glass serum vials. To determine the survival in preservation solution before drying, cell-containing mixtures were diluted in PBS buffer containing 20% sucrose and appropriate dilutions were spread plated in duplicate on L-agar plates.
The samples were dried by foam formation. The mixtures were foamed at 0° C. and kept at that temperature until foam formation occurred. After foam was well formed, shelf temperature was increased to 20° C. and drying continued overnight (at least 12 hours).
(5) Assaying the preserved E. coli cells: Dried samples were rehydrated at room temperature. 1 ml of rehydration solution (20% sucrose) was added to the 5 ml vials and 0.2 ml was added to the 1.2 ml vials. For the determination of preservation survival, rehydrated cells were diluted and spread plated in duplicate on L-agar plates. Plates were incubated at 37° C. overnight and colonies were counted the following day.
Bacterial culture was grown until OD550=0.5 was reached (mid-log growth stage). The cell concentrates were prepared as described previously. Control cells, which were not loaded, were incubated on ice for 30 minutes. Cell concentrates were incubated with different amounts (0.15-1%, 5%, 10% and 15%) of glucose and glucose nonmetabolizable analogs at 37° C. for 30 minutes (loading). These mixtures were preserved as described previously.
Accumulation of MAG in the cells prior to drying enhances preservation of logarithmic E. coli cells. Two cell concentrates (harvested at mid-log growth stage) were prepared as described previously. To induce uptake of MAG, 0.5% glucose was added to the growth medium (“induced culture”). Both concentrates were incubated with 10% MAG at 37° C. for 30 minutes (loading). When loading was completed, one concentrate was diluted 100-fold in PBS buffer and incubated at 37° C. for an additional 30 minutes to induce expulsion of the pre-accumulated MAG. Both concentrates were preserved as described previously.
Mid-logarithmic culture was prepared as described previously. 0.5% glucose was added to the growth medium (“induced cells”). The culture was concentrated 10-fold and the concentrates were incubated for 30 minutes with 10% MAG at different temperatures (0, 20, 40, and 60° C.). The mixtures were preserved as described previously.
Effect of incubation time on accumulation of MAG in logarithmic E. coli cells. Cell concentrates were prepared as described previously (0.5% glucose was added to the growth medium) and incubated with 10% MAG at 37° C. for 0, 2.5, 5, 15, 30, and 60 minutes. The mixtures were preserved as described previously.
Effect of growth stage on accumulation of MAG in E. coli cells. E. coli cultures were grown in L-broth with 0.5% glucose as described previously and harvested at OD550=0.1 (early-log), 0.5 (mid-log), 1.0 (late-log) and 2.0 (stationary cells). The cells in each culture were concentrated and split in two aliquots. […]

[2] = system: logarithmic E. coli cells; test: as above; assay type: cell-based; details: mid-logarithmic cells loaded with 0.1% at 37° C. for 30 minutes
[3] = 10% MAG at 37° C., Incubated for 0 min
[4] = 10% MAG at 37° C., Incubated for 2.5 min
[5] = 10% MAG at 37° C., Incubated for 5 min
[6] = 10% MAG at 37° C., Incubated for 15 min
[7] = 10% MAG at 37° C., Incubated for 30 min
[8] = 10% MAG at 37° C., Incubated for 60 min
[9] = 10% MAG for 30 minutes, Loaded at 0° C.
[10] = 10% MAG for 30 minutes, Loaded at 20° C.
[11] = 10% MAG for 30 minutes, Loaded at 40° C.
[12] = 10% MAG for 30 minutes, Loaded at 60° C.

Structure (SMILES): COC1OC(CO)C(O)C(O)C1O (stereo not drawn) [MAG, a-methyl-glucoside]
- Preservation Yield % Survival [1, 3]: 2.6 +/− 0.8%
- Preservation Yield Cfu/ml [1, 3]: 5.3 × 10^7 +/− 1.7 × 10^7 Cfu/ml
- Stability (7 days at RT) % Survival [1, 3]: 1.2 +/− 0.7%
- Stability (7 days at RT) Cfu/ml [1, 3]: 2.4 × 10^7 Cfu/ml
- Stability (17 days at RT) % Survival [1, 3]: 1.8 +/− 0.5%
- Stability (17 days at RT) Cfu/ml [1, 3]: 3.6 × 10^7 Cfu/ml
- Preservation Yield % Survival [1, 4]: 5.8 +/− 1.1%
- Preservation Yield Cfu/ml [1, 4]: 1.2 × 10^8 +/− 2.1 × 10^7 Cfu/ml
- Stability (7 days at RT) % Survival [1, 4]: 4.9 +/− 0.8%
- Stability (7 days at RT) Cfu/ml [1, 4]: 9.6 × 10^7 Cfu/ml
- Stability (17 days at RT) % Survival [1, 4]: 2.9 +/− 0.6%
- Stability (17 days at RT) Cfu/ml [1, 4]: 5.9 × 10^7 Cfu/ml
- Preservation Yield % Survival [1, 5]: 9.9 +/− 0.6%
- Preservation Yield Cfu/ml [1, 5]: 2.0 × 10^8 +/− 1.1 × 10^7 Cfu/ml
- Stability (7 days at RT) % Survival [1, 5]: 6.8 +/− 1.2%
- Stability (7 days at RT) Cfu/ml [1, 5]: 1.4 × 10^8 Cfu/ml
- Stability (17 days at RT) % Survival [1, 5]: 9.5 +/− 2.7%
- Stability (17 days at RT) Cfu/ml [1, 5]: 1.9 × 10^8 Cfu/ml
- Preservation Yield % Survival [1, 6]: 16.8 +/− 2.8%
- Preservation Yield Cfu/ml [1, 6]: 3.4 × 10^8 +/− 5.6 × 10^7 Cfu/ml
- Stability (7 days at RT) % Survival [1, 6]: 10.4 +/− 0.4%
- Stability (7 days at RT) Cfu/ml [1, 6]: 2.1 × 10^8 Cfu/ml
- Stability (17 days at RT) % Survival [1, 6]: 11.8 +/− 2.6%
- Stability (17 days at RT) Cfu/ml [1, 6]: 2.4 × 10^8 Cfu/ml
- Preservation Yield % Survival [1, 7]: 19.9 +/− 2.2%
- Preservation Yield Cfu/ml [1, 7]: 4.0 × 10^8 +/− 4.4 × 10^7 Cfu/ml
- Stability (7 days at RT) % Survival [1, 7]: 13.0 +/− 2.7%
- Stability (7 days at RT) Cfu/ml [1, 7]: 2.6 × 10^8 Cfu/ml
- Stability (17 days at RT) % Survival [1, 7]: 16.8 +/− 2.6%
- Stability (17 days at RT) Cfu/ml [1, 7]: 3.4 × 10^8 Cfu/ml
- Preservation Yield % Survival [1, 8]: 22.2 +/− 3.0%
- Preservation Yield Cfu/ml [1, 8]: 4.4 × 10^8 +/− 6.1 × 10^7 Cfu/ml
- Stability (7 days at RT) % Survival [1, 8]: 16.3 +/− 1.9%
- Stability (7 days at RT) Cfu/ml [1, 8]: 3.3 × 10^8 Cfu/ml
- Stability (17 days at RT) % Survival [1, 8]: 19.3 +/− 3.9%
- Stability (17 days at RT) Cfu/ml [1, 8]: 3.9 × 10^8 Cfu/ml
- Preservation Yield % Survival [1, 9]: 8.2 +/− 1.4%
- Preservation Yield Cfu/ml [1, 9]: 1.6 × 10^8 Cfu/ml
- Stability (9 Days at RT°) % Survival [1, 9]: 5.0 +/− 0.6%
- Stability (9 Days at RT°) Cfu/ml [1, 9]: 9.4 × 10^7 Cfu/ml
- Stability (16 Days at RT°) % Survival [1, 9]: 5.2 +/− 1.5%
- Stability (16 Days at RT°) Cfu/ml [1, 9]: 9.9 × 10^7 Cfu/ml
- Preservation Yield % Survival [1, 10]: 14.1 +/− 2.6%
- Preservation Yield Cfu/ml [1, 10]: 2.7 × 10^8 Cfu/ml
- Stability (9 Days at RT°) % Survival [1, 10]: 8.7 +/− 0.6%
- Stability (9 Days at RT°) Cfu/ml [1, 10]: 1.6 × 10^8 Cfu/ml
- Stability (16 Days at RT°) % Survival [1, 10]: 7.3 +/− 1.7%
- Stability (16 Days at RT°) Cfu/ml [1, 10]: 1.4 × 10^8 Cfu/ml
- Preservation Yield % Survival [1, 11]: 23.2 +/− 3.5%
- Preservation Yield Cfu/ml [1, 11]: 4.4 × 10^8 Cfu/ml
- Stability (9 Days at RT°) % Survival [1, 11]: 28.1 +/− 3.5%
- Stability (9 Days at RT°) Cfu/ml [1, 11]: 5.3 × 10^8 Cfu/ml
- Stability (16 Days at RT°) % Survival [1, 11]: 21.0 +/− 1.9%
- Stability (16 Days at RT°) Cfu/ml [1, 11]: 3.9 × 10^8 Cfu/ml
- Preservation Yield % Survival [1, 12]: 0%
- Preservation Yield Cfu/ml [1, 12]: 1.4 × 10^4 Cfu/ml
- Stability (9 Days at RT°) % Survival [1, 12]: 0%
- Stability (9 Days at RT°) Cfu/ml [1, 12]: 1.2 × 10^4 Cfu/ml
- Stability (16 Days at RT°) % Survival [1, 12]: 0%
- Stability (16 Days at RT°) Cfu/ml [1, 12]: 1.3 × 10^4 Cfu/ml
- Preservation Yield (Day 0) % Survival ([1]; OD = 0.1 (early-log)): 11.3 +/− 0.9%
- Preservation Yield (Day 0) Cfu/ml ([1]; OD = 0.1 (early-log)): 1.6 × 10^7 Cfu/ml
- Stability (Day 7 at RT) % Survival ([1]; OD = 0.1 (early-log)): 8.2 +/− 0.8%
- Stability (Day 7 at RT) Cfu/ml ([1]; OD = 0.1 (early-log)): 1.2 × 10^7 Cfu/ml
- Stability (Day 14) % Survival ([1]; OD = 0.1 (early-log)): 9.9 +/− 2.2%
- Stability (Day 14) Cfu/ml ([1]; OD = 0.1 (early-log)): 1.5 × 10^7 Cfu/ml
- Preservation Yield (Day 0) % Survival ([1]; OD = 0.5 (mid-log)): 22.2 +/− 2.9%
- Preservation Yield (Day 0) Cfu/ml ([1]; OD = 0.5 (mid-log)): 5.5 × 10^8 Cfu/ml
- Stability (Day 7 at RT) % Survival ([1]; OD = 0.5 (mid-log)): 21.6 +/− 4.7%
- Stability (Day 7 at RT) Cfu/ml ([1]; OD = 0.5 (mid-log)): 5.3 × 10^8 Cfu/ml
- Stability (Day 14) % Survival ([1]; OD = 0.5 (mid-log)): 17.4 +/− 1.2%
- Stability (Day 14) Cfu/ml ([1]; OD = 0.5 (mid-log)): 4.3 × 10^8 Cfu/ml
- Preservation Yield (Day 0) % Survival ([1]; OD = 1.0 (late-log)): 26.3 +/− 4.7%
- Preservation Yield (Day 0) Cfu/ml ([1]; OD = 1.0 (late-log)): 2.3 × 10^9 Cfu/ml
- Stability (Day 7 at RT) % Survival ([1]; OD = 1.0 (late-log)): 36.1 +/− 7.5%
- Stability (Day 7 at RT) Cfu/ml ([1]; OD = 1.0 (late-log)): 3.2 × 10^9 Cfu/ml
- Stability (Day 14) % Survival ([1]; OD = 1.0 (late-log)): 33.0 +/− 5.7%
- Stability (Day 14) Cfu/ml ([1]; OD = 1.0 (late-log)): 2.9 × 10^9 Cfu/ml
- Preservation Yield (Day 0) % Survival ([1]; OD = 2.0 (stationary cells)): 38.8 +/− 5.8%
- Preservation Yield (Day 0) Cfu/ml ([1]; OD = 2.0 (stationary cells)): 2.8 × 10^9 Cfu/ml
- Stability (Day 7 at RT) % Survival ([1]; OD = 2.0 (stationary cells)): 29.9 +/− 3.6%
- Stability (Day 7 at RT) Cfu/ml ([1]; OD = 2.0 (stationary cells)): 2.1 × 10^9 Cfu/ml
- Stability (Day 14) % Survival ([1]; OD = 2.0 (stationary cells)): 35.3 +/− 7.5%
- Stability (Day 14) Cfu/ml ([1]; OD = 2.0 (stationary cells)): 2.5 × 10^9 Cfu/ml
- survived drying ([1]; mid-logarithmic cells loaded with 1% at 37° C. for 30 minutes): 12%
- survived drying ([1]; mid-logarithmic cells loaded with 5% at 37° C. for 30 minutes): 24%
- survived drying [2]: 9%
